How the values were obtained:
[1] = tested on: MGMT negative human melanoma cells A2058; experiment: Colony formation assay (cytotoxicity), A2058 melanoma cells; type: cell-based; conditions: 48-hour drug incubation, colonies counted 7-10 days later, compared at similar concentrations (FIG. 1)
Description: (§1) The cytotoxicity of TMZ, POH-TMZ, and POH-TMZ-Linoleate were studied by colony formation assay of A2058 and A375 melanoma cells. A2058 and A375 cells were harvested and made single cell suspension in culture medium (DMEM with 10% FBS, 1% Penicillin/Streptomycin). 500 cells/well were seeded into 12-well plate (tissue culture treated, from Olympus Plastics) pre-warmed culture medium at 37° C. The cells were cultured overnight for attachment to the plate. Then the medium was removed and replaced with fresh medium containing varied concentrations of drugs (or no drugs as a control) for further 48-hour incubation. After 48 hours treatment, the medium was aspirated and replaced with normal culture medium. 7-10 days later, the culture medium was aspirated, and the colonies formed inside the wells were washed with cold PBS once. Then the colonies were stained with 0.1% methylene blue (in methanol) for 4-6 hours. The plates were then washed and the formed colonies counted (the colonies formed with 20 cells or more are countable).

[2] = tested on: MGMT positive human melanoma cells A375; experiment: Colony formation assay (cytotoxicity), A375 melanoma cells; type: cell-based; conditions: 48-hour drug incubation, colonies counted 7-10 days later, compared at similar concentrations (FIG. 2)
Description: as §1

[3] = tested on: human melanoma tumor cells, A2058; experiment: In vivo tumor growth inhibition, subcutaneous A2058 melanoma in nude mice, topical treatment, with CD31 histology
Description: Inhibition of tumor growth by POH-TMZ-linoleate was studied in nude mice. Nude mice were injected subcutaneously with 2×10^6 human melanoma tumor cells, A2058. The melanoma cells were allowed to form a palpable nodule in the mice. When the tumor size reached 1.0-1.5 cm in diameter in any dimension, a control mouse was treated topically with a vehicle (10% DMSO in 45% Glycerol+45% ethanol), and a test mouse was topically treated with TPL (50 mM TPL working solution was reconstituted in 45% Glycerol+45% Ethanol, and 100 μl (25 mg/kg) was applied topically on the skin which covers the whole tumor). The control mouse and the test mouse were both treated twice daily for 14 days.
After the 14 days of treatment the mice were sacrificed, the tumor removed, sectioned at 8 μm, fixed with acetone, and stored at −20° C. For histological analysis, the tissues were blocked with sea block and stained with the primary antibody Rat anti Mouse (1:50) overnight following which secondary biotinylated goat anti rat antibody (1:200) was added for 45 minutes, washed and avidin biotin complex, ABC elite was added for 30 minutes, washed and then stained with AEC and counter stained with hematoxylin. Such staining was used to evaluate the endothelial marker CD31 expression, which is representative of the amounts of blood vessels in the tumor. Staining images were captured at 40× under optical microscope. […] The histological analysis results were further quantified using ImageJ software by measuring the average area of staining in the tumors of the test mouse after TPL treatment and the control mouse, where the average area of staining was calculated based on the red precipitate of the stain in μm^2. From FIG. 5, it can be seen that the average area of staining is much smaller in the tumor of the test mouse than that in the control mouse.

Compound | colonies count (effectiveness in killing the melanoma cells) [1] | colonies count (effectiveness in killing the melanoma cells) [2] | tumor angiogenesis (CD31 staining, visual inspection) versus vehicle-treated mouse ([3]; after 14 days of topical treatment, FIGS. 4D-4F vs 4A-4C) | average area of CD31 staining in the tumor versus control mouse ([3]; after 14 days of topical treatment, ImageJ quantification, FIG. 5) | vascularization of the tumor compared with the tumor before the treatment ([3]; topical 25 mg/kg twice daily for 14 days, FIG. 3B vs FIG. 3A) | appearance of the tumor surface after treatment ([3]; topical 50 mM, 100 μl (25 mg/kg) twice daily for 14 days, FIG. 3B)
C=C(C)[C@@H]1CC=C(COC(=O)NC(=O)c2ncn3c(=O)n(C)nnc23)CC1 [POH-TMZ, reference compound] | more effective than TMZ | more effective than TMZ | – | – | – | –
C=C(C)[C@@H]1CC=C(COC(=O)N(C(=O)CCCCCCC/C=C\C/C=C\CCCCC)C(=O)c2ncn3c(=O)n(C)nnc23)CC1 [POH-TMZ-linoleate, (3-Methyl-4-oxo-3,4-dihydro-imidazo[5,1-d][1,2,3,5]tetrazine-8-carbonyl)-octadeca-9,12-dienoyl-carbamic acid 4-isopropenyl-cyclohex-1-enylmethyl ester] | more effective in killing the melanoma cells than POH-TMZ | more effective in killing the melanoma cells than POH-TMZ | much lower | much smaller | reduced vascularization | developed a hard surface
